Test results published in patent US20160002204A1 (Board of Regents, The University of Texas System, priority 2014, published 2016).

What was measured:
[1] = target: T1, GLS1 (purified recombinant human GAC) (Homo sapiens, UniProt O94925); test: GLS1 enzymatic activity assay (dual-coupled, Amplex UltraRed/resorufin); type: biochemical
T1 sequence (O94925 55-598 isoform O94925-3 limits assumed): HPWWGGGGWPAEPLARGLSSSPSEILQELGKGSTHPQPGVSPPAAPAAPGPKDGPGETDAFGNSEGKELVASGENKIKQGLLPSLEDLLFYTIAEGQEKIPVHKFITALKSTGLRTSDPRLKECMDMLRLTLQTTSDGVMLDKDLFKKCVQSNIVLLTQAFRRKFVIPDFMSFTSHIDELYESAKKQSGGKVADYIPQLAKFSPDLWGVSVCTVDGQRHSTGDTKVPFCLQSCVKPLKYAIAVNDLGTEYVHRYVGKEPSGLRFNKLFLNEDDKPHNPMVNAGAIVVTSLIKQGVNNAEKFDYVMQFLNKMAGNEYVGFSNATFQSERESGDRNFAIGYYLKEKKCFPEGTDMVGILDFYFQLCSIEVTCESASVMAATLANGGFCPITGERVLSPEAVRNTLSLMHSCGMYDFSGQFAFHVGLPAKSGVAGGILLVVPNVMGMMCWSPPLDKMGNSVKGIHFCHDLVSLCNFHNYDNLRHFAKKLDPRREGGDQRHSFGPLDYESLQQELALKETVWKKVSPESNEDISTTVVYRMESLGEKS
Summary of the method: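 In this coupled fluorometric format, phosphate-activated GAC (2 nM, 50 mM phosphate) is pre-exposed to compound for 10 min before 1 mM glutamine addition. Product is tracked as resorufin (530/590 nm) over time or at 20 min, and potency is derived by logistic fitting.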

A549 cells = test: A549 proliferation (viability) assay, Cell Titer Fluor, 72 hours; type: cell-based; settings: Homo sapiens
Summary of the method: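 Seed A549 at 1000 cells/well and culture 24 h. Add compound (final DMSO 0.5%) and incubate 72 h at 37 °C. Add Cell Titer Fluor, mix 15 min, incubate 30 min, read fluorescence and fit EC50 by four-parameter logistic.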

Compound	IC50 [1]	EC50 (A549 cells)
O=C(Nc1ccn(CCC(F)Cn2cc(C(=O)NCc3cc(C(F)(F)F)ccn3)nn2)c(=O)c1F)C(=O)N1CCCCC1 (stereo not drawn) [Example 423, 1-(2-fluoro-4-{3-fluoro-2-oxo-4-[2-oxo-2-(piperidin-1-yl)acetamido]-1,2-dihydropyridin-1-yl}butyl)-N-{[4-(trifluoromethyl)pyridin-2-yl]methyl}-1H-1,2,3-triazole-4-carboxamide]	< 100 nM	100 to 500 nM
O=C(Nc1ccn(CCC(F)Cn2cc(C(=O)NCc3cccc(OC(F)(F)F)c3)nn2)c(=O)c1F)C(=O)N1CC2(CCC2)C1 (stereo not drawn) [Example 424, 1-{4-[4-(2-{2-azaspiro[3.3]heptan-2-yl}-2-oxoacetamido)-3-fluoro-2-oxo-1,2-dihydropyridin-1-yl]-2-fluorobutyl}-N-{[3-(trifluoromethoxy)phenyl]methyl}-1H-1,2,3-triazole-4-carboxamide]	< 100 nM	100 to 500 nM
CCN(CC)C(=O)C(=O)Nc1ccn(CCC(F)Cn2cc(C(=O)NCc3cccc(OC(F)(F)F)c3)nn2)c(=O)c1F (stereo not drawn) [Example 425, N,N-diethyl-N′-(3-fluoro-1-{3-fluoro-4-[4-({[3-(trifluoro-methoxy)phenyl]methyl}carbamoyl)-1H-1,2,3-triazol-1-yl]butyl}-2-oxo-1,2-dihydropyridin-4-yl)ethanediamide]	< 100 nM	100 to 500 nM
O=C(Nc1ccn(CCC(F)Cn2cc(C(=O)NCc3cccc(OC(F)(F)F)c3)nn2)c(=O)c1F)C(=O)N1CCCC(O)C1 (stereo not drawn) [Example 426, 1-(2-fluoro-4-{3-fluoro-4-[2-(3-hydroxypiperidin-1-yl)-2-oxoacetamido]-2-oxo-1,2-dihydropyridin-1-yl}butyl)-N-{[3-(trifluoromethoxy)phenyl]methyl}-1H-1,2,3-triazole-4-carboxamide]	< 100 nM	500 to 5000 nM
O=C(Nc1ccn(CCC(F)Cn2cc(C(=O)NCc3ccccn3)nn2)c(=O)c1F)C(=O)N1CCCCC1 (stereo not drawn) [Example 427, 1-(2-fluoro-4-{3-fluoro-2-oxo-4-[2-oxo-2-(piperidin-1-yl)acetamido]-1,2-dihydropyridin-1-yl}butyl)-N-(pyridin-2-ylmethyl)-1H-1,2,3-triazole-4-carboxamide]	500 to 5000 nM	500 to 5000 nM
CC1(C)CN(C(=O)C(=O)Nc2ccn(CCC(F)Cn3cc(C(=O)NCc4cccc(OC(F)(F)F)c4)nn3)c(=O)c2F)C1 (stereo not drawn) [Example 428, 1-(4-{4-[2-(3,3-dimethylazetidin-1-yl)-2-oxoacetamido]-3-fluoro-2-oxo-1,2-dihydropyridin-1-yl}-2-fluorobutyl)-N-{[3-(trifluoromethoxy)phenyl]methyl}-1H-1,2,3-triazole-4-carboxamide]	< 100 nM	< 100 nM
CNC(=O)c1cn(CC(F)CCn2ccc(NC(=O)C(=O)N3CCCCC3)c(F)c2=O)nn1 (stereo not drawn) [Example 429, 1-(2-fluoro-4-{3-fluoro-2-oxo-4-[2-oxo-2-(piperidin-1-yl)acetamido]-1,2-dihydropyridin-1-yl}butyl)-N-methyl-1H-1,2,3-triazole-4-carboxamide]	500 to 5000 nM	500 to 5000 nM
Nc1ccn(CCC(F)Cn2cc(C(=O)NCc3cc(OC(F)(F)F)ccc3F)nn2)c(=O)c1F (stereo not drawn) [Example 430, 1-[4-(4-amino-3-fluoro-2-oxo-1,2-dihydropyridin-1-yl)-2-fluorobutyl]-N-{[2-fluoro-5-(trifluoromethoxy)phenyl]methyl}-1H-1,2,3-triazole-4-carboxamide]	500 to 5000 nM	> 5000 nM
C[C@@H]1CCN(C(=O)C(=O)Nc2ccn(CCC(F)Cn3cc(C(=O)NCc4cc(OC(F)(F)F)ccc4F)nn3)c(=O)c2F)C1 (stereo partly drawn) [Example 431, 1-[2-fluoro-4-(3-fluoro-4-{2-[(3R)-3-methylpyrrolidin-1-yl]-2-oxoacetamido}-2-oxo-1,2-dihydropyridin-1-yl)butyl]-N-{[2-fluoro-5-(trifluoromethoxy)phenyl]methyl}-1H-1,2,3-triazole-4-carboxamide]	< 100 nM	< 100 nM
